Assays:
Assay type in all cases: functional
Hs-578T = assay: Cytotoxicity against Homo sapiens (human) Hs 578T cells after 48 hr by SRB assay
BT-549 = assay: Cytotoxicity against Homo sapiens (human) BT549 cells after 48 hr by SRB assay; conditions: BT-549, 48 h, read-out: pGI50 (converted)
MDA-MB-231 = assay: Cytotoxicity against Homo sapiens (human) MDA-MB-231 cells after 48 hr by SRB assay; conditions: MDA-MB-231, 48 h, read-out: pGI50 (converted)
PC-3 = assay: Cytotoxicity against Homo sapiens (human) PC3 cells after 48 hr by SRB assay; conditions: PC-3, 48 h, read-out: pGI50 (converted)
RXF 393 = assay: Cytotoxicity against Homo sapiens (human) RXF393 cells after 48 hr by SRB assay; conditions: RXF 393, 48 h, read-out: pGI50 (converted)
CAKI-1 = assay: Cytotoxicity against Homo sapiens (human) Caki1 cells after 48 hr by SRB assay; conditions: CAKI-1, 48 h, read-out: pGI50 (converted)
A498 = assay: Cytotoxicity against Homo sapiens (human) A498 cells after 48 hr by SRB assay; conditions: A498, 48 h, read-out: pGI50 (converted)
786-0 = assay: Cytotoxicity against Homo sapiens (human) 786-0 cells after 48 hr by SRB assay; conditions: 786-0, 48 h, read-out: pGI50 (converted)
SK-OV-3 = assay: Cytotoxicity against Homo sapiens (human) SKOV3 cells after 48 hr by SRB assay; conditions: SK-OV-3, 48 h, read-out: pGI50 (converted)
NCI-H226 = assay: Cytotoxicity against Homo sapiens (human) NCI-H226 cells after 48 hr by SRB assay; conditions: NCI-H226, 48 h, read-out: pGI50 (converted)
HOP-62 = assay: Cytotoxicity against Homo sapiens (human) HOP62 cells after 48 hr by SRB assay; conditions: HOP-62, 48 h, read-out: pGI50 (converted)
HOP-92 = assay: Cytotoxicity against Homo sapiens (human) HOP92 cells after 48 hr by SRB assay; conditions: HOP-92, 48 h, read-out: pGI50 (converted)
A549 = assay: Cytotoxicity against Homo sapiens (human) A549 cells after 48 hr by SRB assay; conditions: A549, 48 h, read-out: pGI50 (converted)
EKVX = assay: Cytotoxicity against Homo sapiens (human) EKVX cells after 48 hr by SRB assay; conditions: read-out: pGI50 (converted)
RPMI-8226 = assay: Cytotoxicity against Homo sapiens (human) RPMI8226 cells after 48 hr by SRB assay; conditions: RPMI-8226, 48 h, read-out: pGI50 (converted)
K562 = assay: Cytotoxicity against Homo sapiens (human) K562 cells after 48 hr by SRB assay; conditions: K562, 48 h, read-out: pGI50 (converted)
MOLT-4 = assay: Cytotoxicity against Homo sapiens (human) MOLT4 cells after 48 hr by SRB assay; conditions: MOLT-4, 48 h, read-out: pGI50 (converted)
CCRF-CEM = assay: Cytotoxicity against Homo sapiens (human) CCRF-CEM cells after 48 hr by SRB assay; conditions: read-out: pGI50 (converted)
HL-60(TB) = assay: Cytotoxicity against Homo sapiens (human) HL-60(TB) cells after 48 hr by SRB assay; conditions: HL-60, 48 h, read-out: pGI50 (converted)
OVCAR-4 = assay: Cytotoxicity against Homo sapiens (human) OVCAR4 cells after 48 hr by SRB assay; conditions: OVCAR-4, 48 h, read-out: pGI50 (converted)
OVCAR-5 = assay: Cytotoxicity against Homo sapiens (human) OVCAR5 cells after 48 hr by SRB assay; conditions: OVCAR-5, 48 h, read-out: pGI50 (converted)
OVCAR-3 = assay: Cytotoxicity against Homo sapiens (human) OVCAR3 cells after 48 hr by SRB assay; conditions: OVCAR-3, 48 h, read-out: pGI50 (converted)
SK-MEL-2 = assay: Cytotoxicity against Homo sapiens (human) SK-MEL-2 cells after 48 hr by SRB assay; conditions: SK-MEL-2, 48 h, read-out: pGI50 (converted)
Malme-3M = assay: Cytotoxicity against Homo sapiens (human) MALME-3M cells after 48 hr by SRB assay; conditions: read-out: pGI50 (converted)
U-251 = assay: Cytotoxicity against Homo sapiens (human) U251 cells after 48 hr by SRB assay; conditions: U-251, 48 h, read-out: pGI50 (converted)
SNB-75 = assay: Cytotoxicity against Homo sapiens (human) SNB75 cells after 48 hr by SRB assay; conditions: SNB-75, 48 h, read-out: pGI50 (converted)
SF-539 = assay: Cytotoxicity against Homo sapiens (human) SF539 cells after 48 hr by SRB assay; conditions: SF-539, 48 h, read-out: pGI50 (converted)
SF-268 = assay: Cytotoxicity against Homo sapiens (human) SF268 cells after 48 hr by SRB assay; conditions: SF-268, 48 h, read-out: pGI50 (converted)
HT-29 = assay: Cytotoxicity against Homo sapiens (human) HT-29 cells after 48 hr by SRB assay; conditions: HT-29, 48 h, read-out: pGI50 (converted)
HCT-116 = assay: Cytotoxicity against Homo sapiens (human) HCT116 cells after 48 hr by SRB assay; conditions: HCT-116, 48 h, read-out: pGI50 (converted)
HCT-15 = assay: Cytotoxicity against Homo sapiens (human) HCT15 cells after 48 hr by SRB assay; conditions: HCT-15, 48 h, read-out: pGI50 (converted)
HCC 2998 = assay: Cytotoxicity against Homo sapiens (human) HCC2998 cells after 48 hr by SRB assay; conditions: HCC 2998, 48 h, read-out: pGI50 (converted)
NCI-H522 = assay: Cytotoxicity against Homo sapiens (human) NCI-H522 cells after 48 hr by SRB assay; conditions: NCI-H522, 48 h, read-out: pGI50 (converted)
NCI-H322M = assay: Cytotoxicity against Homo sapiens (human) NCI-H322M cells after 48 hr by SRB assay; conditions: read-out: pGI50 (converted)

`O=c1[nH]cc(F)c(=O)[nH]1` [FLUOROURACIL] gave a GI50 (Hs-578T) of 251 µM, a GI50 (BT-549) of 100 µM and a GI50 (MDA-MB-231) of 501 µM. The GI50 (PC-3) was 50.1 µM, the GI50 (RXF 393) was 50.1 µM and the GI50 (CAKI-1) was 3.98 µM. For the same molecule, the GI50 (A498) was 10 µM, the GI50 (786-0) was 12.6 µM and the GI50 (SK-OV-3) was 158 µM. For the same molecule, the GI50 (NCI-H226) was 251 µM, the GI50 (HOP-62) was 20 µM and the GI50 (HOP-92) was 158 µM. It also gave a GI50 (A549) of 2 µM, a GI50 (EKVX) of 316 µM and a GI50 (RPMI-8226) of 5.01 µM. The GI50 (K562) was 20 µM, the GI50 (MOLT-4) was 12.6 µM and the GI50 (CCRF-CEM) was 31.6 µM. It also gave a GI50 (HL-60(TB)) of 20 µM, a GI50 (OVCAR-4) of 63.1 µM and a GI50 (OVCAR-5) of 158 µM. For the same molecule, the GI50 (OVCAR-3) was 25.1 µM, the GI50 (SK-MEL-2) was 398 µM and the GI50 (Malme-3M) was 20 µM. The GI50 (U-251) was 39.8 µM, the GI50 (SNB-75) was 200 µM and the GI50 (SF-539) was 1.26 µM. For the same molecule, the GI50 (SF-268) was 50.1 µM, the GI50 (HT-29) was 6.31 µM and the GI50 (HCT-116) was 3.98 µM. For the same molecule, the GI50 (HCT-15) was 6.31 µM, the GI50 (HCC 2998) was 1.58 µM and the GI50 (NCI-H522) was 39.8 µM. It also gave a GI50 (NCI-H322M) of 20 µM.

From ChEMBL document CHEMBL3045199, “Synthesis of some (E)-6-[2-(furan-2-yl)ethenyl]-1,2,4-triazin-5-ones and their biological evaluation as antitumor agents” (2013)
